Assay results reported in patent US20210395313A1, “PEPTIDE PAC1 ANTAGONISTS” (AMGEN INC., priority 2017, published 2021).
Where a SMILES comes first, the peptide text is derived from it. Bridges are numbered along the chain shown (N, C = ends). Where no end group is shown, it is not given here.

Assays:
human PAC1 receptor = molecular target: T1, human PAC1 receptor (Homo sapiens, UniProt P41586); assay: LANCE Ultra cAMP accumulation antagonist assay in SHSY-5Y cells; type: cell-based;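 also: inhibition of cAMP accumulation evoked by PAC1 agonist at its EC80 in SHSY-5Y cells endogenously expressing receptor, 30 min preincubation then 15 min agonist, TR-FRET readout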
T1 construct: SHSY-5Y (human neuroblastoma cell line) and RG-2 (rat glioma cell line) cells endogenously express human and rat PAC1 receptors, respectively; endogenous in cells; host or cells: SHSY-5Y human neuroblastoma cells
T1 sequence (P41586 21-468): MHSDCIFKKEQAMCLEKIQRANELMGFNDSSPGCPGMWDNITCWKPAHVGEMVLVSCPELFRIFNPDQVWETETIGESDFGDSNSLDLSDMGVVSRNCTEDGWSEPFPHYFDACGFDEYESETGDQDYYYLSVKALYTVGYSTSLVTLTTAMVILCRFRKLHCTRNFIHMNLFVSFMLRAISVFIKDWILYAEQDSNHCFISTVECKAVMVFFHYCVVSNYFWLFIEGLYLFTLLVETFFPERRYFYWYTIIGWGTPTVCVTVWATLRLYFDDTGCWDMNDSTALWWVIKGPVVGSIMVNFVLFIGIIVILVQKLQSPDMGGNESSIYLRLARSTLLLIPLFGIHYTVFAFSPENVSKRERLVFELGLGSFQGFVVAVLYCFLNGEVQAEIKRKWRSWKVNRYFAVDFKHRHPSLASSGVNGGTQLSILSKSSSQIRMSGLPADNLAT

rat PAC1 receptor = molecular target: T2, rat PAC1 receptor (Rattus norvegicus, UniProt P32215); assay: LANCE Ultra cAMP accumulation antagonist assay in RG-2 cells; type: cell-based;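 also: RG-2 rat glioma cells endogenously expressing PAC1, test peptide preincubated 30 min, then PAC1 agonist added at its EC80 for 15 min, cAMP accumulation read by LANCE Ultra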
T2 construct: SHSY-5Y (human neuroblastoma cell line) and RG-2 (rat glioma cell line) cells endogenously express human and rat PAC1 receptors, respectively; endogenous in cells; host or cells: RG-2 rat glioma cells
T2 sequence (P32215 20-523): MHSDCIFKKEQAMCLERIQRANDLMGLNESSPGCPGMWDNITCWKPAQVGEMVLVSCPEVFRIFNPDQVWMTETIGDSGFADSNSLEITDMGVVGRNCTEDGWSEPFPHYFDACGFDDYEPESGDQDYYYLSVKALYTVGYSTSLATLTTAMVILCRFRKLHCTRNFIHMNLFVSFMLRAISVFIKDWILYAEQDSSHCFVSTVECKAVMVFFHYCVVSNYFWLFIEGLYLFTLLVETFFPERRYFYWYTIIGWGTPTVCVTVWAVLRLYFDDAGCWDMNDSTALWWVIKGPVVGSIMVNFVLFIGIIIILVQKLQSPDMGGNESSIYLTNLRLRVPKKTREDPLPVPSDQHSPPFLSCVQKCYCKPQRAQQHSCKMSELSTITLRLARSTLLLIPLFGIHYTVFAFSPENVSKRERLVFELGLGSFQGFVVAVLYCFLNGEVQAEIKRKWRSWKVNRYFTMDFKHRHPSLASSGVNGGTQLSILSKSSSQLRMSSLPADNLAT

Compound: CDATCQFRKAIDDCYYRSKHSNVPGSVFKACMKQKKKEFKAG-NH2 (disulfide 1-5, 14-31) [compound 43]
- IC50 (human PAC1 receptor): 0.01 to 1 nM
- IC50 (rat PAC1 receptor): < 0.01 nM

Compound: CDATCQFRKAIDDCQKQAHHSNVPGSVFKACLVQKKKEFKAG-NH2 (disulfide 1-5, 14-31) [compound 101]
- IC50 (human PAC1 receptor): 1 to 100 nM
- IC50 (rat PAC1 receptor): 1 to 100 nM

Compound: GCDATCQFRKAIDDCAKQAHHSNVPGSVFKACMKQKKKEFKAGY (disulfide 2-6, 15-32) [SEQ ID NO 58]
- IC50 (human PAC1 receptor): 0.01 to 1 nM
- IC50 (rat PAC1 receptor): 0.01 to 1 nM

Compound: CC[C@H](C)[C@H](NC(=O)[C@H](C)NC(=O)[C@H](CCCCN)NC(=O)[C@H](CCCNC(=N)N)NC(=O)[C@H](Cc1ccccc1)NC(=O)[C@H](CCC(N)=O)NC(=O)[C@@H]1CSSC[C@H](N)C(=O)N[C@@H](CC(=O)O)C(=O)N[C@@H](C)C(=O)N[C@@H]([C@@H](C)O)C(=O)N1)C(=O)N[C@@H](CC(=O)O)C(=O)N[C@@H](CC(=O)O)C(=O)N[C@H]1CSSC[C@@H](C(=O)N[C@@H](CCSC)C(=O)N[C@@H](CCCCN)C(=O)N[C@@H](CCC(N)=O)C(=O)N[C@@H](CCCCN)C(=O)N[C@@H](CCCCN)C(=O)N[C@@H](CCCCN)C(=O)N[C@@H](CCC(=O)O)C(=O)N[C@@H](Cc2ccccc2)C(=O)N[C@@H](CCCCN)C(N)=O)NC(=O)[C@H](CCC(=O)O)NC(=O)[C@H](CCCCN)NC(=O)[C@H](Cc2ccccc2)NC(=O)[C@H](C(C)C)NC(=O)[C@H](CO)NC(=O)[C@H](CC(N)=O)NC(=O)CNC(=O)[C@@H]2CCCN2C(=O)[C@H](C(C)C)NC(=O)[C@H](CC(N)=O)NC(=O)[C@H](CO)NC(=O)[C@H](Cc2c[nH]cn2)NC(=O)[C@H](Cc2c[nH]cn2)NC(=O)[C@H](C)NC(=O)[C@H](CCC(N)=O)NC(=O)[C@H](CCCCN)NC(=O)[C@H](CC(=O)O)NC1=O [compound 295]
- IC50 (human PAC1 receptor): 1 to 100 nM
- IC50 (rat PAC1 receptor): 0.01 to 1 nM

Compound: CEATCQFRKAIDDCARQAHHSNVPGSVFKACMKQKKKEWKAGH (disulfide 1-5, 14-31) [compound 11]
- IC50 (human PAC1 receptor): 0.01 to 1 nM
- IC50 (rat PAC1 receptor): 0.01 to 1 nM

Compound: CDATCQFRKAIDDCVRQAHHSNVPGSVFKACMKQKKKEWKAG (disulfide 1-5, 14-31) [compound 82]
- IC50 (human PAC1 receptor): 0.01 to 1 nM
- IC50 (rat PAC1 receptor): 0.01 to 1 nM

Compound: CDATCQFRKAIDDCAKQAHHSNVPGSVFKSCMKQKKKEFKAG-NH2 (disulfide 1-5, 14-31) [compound 31]
- IC50 (human PAC1 receptor): 0.01 to 1 nM
- IC50 (rat PAC1 receptor): < 0.01 nM

Compound: CDATCQFRKAIDDCARQAHHSNVPGSVFKACIKQKKKEWKAGH (disulfide 1-5, 14-31) [compound 9]
- IC50 (human PAC1 receptor): 0.01 to 1 nM
- IC50 (rat PAC1 receptor): 0.01 to 1 nM

Compound: CC[C@H](C)[C@H](NC(=O)[C@H](C)NC(=O)[C@H](CCCCN)NC(=O)[C@H](CCCNC(=N)N)NC(=O)[C@H](Cc1ccccc1)NC(=O)[C@H](CCC(N)=O)NC(=O)[C@@H]1CSSC[C@H](N)C(=O)N[C@@H](CC(=O)O)C(=O)N[C@@H](C)C(=O)N[C@@H]([C@@H](C)O)C(=O)N1)C(=O)N[C@@H](CC(=O)O)C(=O)N[C@@H](CC(=O)O)C(=O)N[C@H]1CSSC[C@@H](C(=O)N[C@@H](CCSC)C(=O)N[C@@H](CCCCN)C(=O)N[C@@H](CCC(N)=O)C(=O)N[C@@H](CCCCN)C(=O)N[C@@H](CCCCN)C(=O)N[C@@H](CCCCN)C(=O)N[C@@H](CCC(=O)O)C(=O)N[C@@H](Cc2ccccc2)C(=O)N[C@@H](CCCCN)C(=O)N[C@@H](C)C(=O)NCC(=O)N[C@@H](Cc2c[nH]cn2)C(=O)O)NC(=O)[C@H](C)NC(=O)[C@H](CCCCN)NC(=O)[C@H](Cc2ccccc2)NC(=O)[C@H](C(C)C)NC(=O)[C@H](CO)NC(=O)[C@H](CO)NC(=O)[C@H](Cc2c[nH]cn2)NC(=O)[C@H](Cc2ccc(O)cc2)NC(=O)[C@H](C)NC(=O)[C@H](CCC(N)=O)NC(=O)[C@H](CCCNC(=N)N)NC(=O)[C@H](C)NC1=O [compound 35] (H-CDATCQFRKAIDDCARQAYHSSVFKACMKQKKKEFKAGH-OH; disulfide 1-5, 14-27)
- IC50 (human PAC1 receptor): 0.01 to 1 nM
- IC50 (rat PAC1 receptor): 0.01 to 1 nM

Compound: CDATCQFRKAIDDCQKQAHHSNVPGSVFKACMVQKKKEFKAG-NH2 (disulfide 1-5, 14-31) [compound 102]
- IC50 (human PAC1 receptor): 1 to 100 nM
- IC50 (rat PAC1 receptor): 0.01 to 1 nM

Compound: CDATCQFRKAIDDCHLLAWHSNVPGSVFKACMKQKKKEFKAG-NH2 (disulfide 1-5, 14-31) [compound 76]
- IC50 (human PAC1 receptor): 0.01 to 1 nM
- IC50 (rat PAC1 receptor): 0.01 to 1 nM

Compound: CDATCQFRKAIDDCDRQAHHSNVPGSVFKACMKQKKKEFKAGH (disulfide 1-5, 14-31) [compound 155]
- IC50 (human PAC1 receptor): 1 to 100 nM
- IC50 (rat PAC1 receptor): 0.01 to 1 nM

Compound: CDATCQFRKAIDDCQKQAHHSNVPGSVFKACMKQKKKEFKA-NH2 (disulfide 1-5, 14-31) [compound 214]
- IC50 (human PAC1 receptor): 1 to 100 nM
- IC50 (rat PAC1 receptor): 0.01 to 1 nM

Compound: CDATCQFRKAIDDCARQAHHSNVPGSVFKSCMKQKKKEWKAGH (disulfide 1-5, 14-31) [compound 24]
- IC50 (human PAC1 receptor): 0.01 to 1 nM
- IC50 (rat PAC1 receptor): 0.01 to 1 nM

Compound: CDATCQFRKAIDDCVRQAYHSNVPGSVFKACMKQKKKEWKAGH (disulfide 1-5, 14-31) [compound 84]
- IC50 (human PAC1 receptor): 0.01 to 1 nM
- IC50 (rat PAC1 receptor): 0.01 to 1 nM

Compound: CC[C@H](C)[C@H](NC(=O)[C@H](C)NC(=O)[C@H](CCCCN)NC(=O)[C@H](CCCNC(=N)N)NC(=O)[C@H](Cc1ccccc1)NC(=O)[C@H](CCC(N)=O)NC(=O)[C@@H]1CSSC[C@H](N)C(=O)N[C@@H](CC(=O)O)C(=O)N[C@@H](C)C(=O)N[C@@H]([C@@H](C)O)C(=O)N1)C(=O)N[C@@H](CC(=O)O)C(=O)N[C@@H](CC(=O)O)C(=O)N[C@H]1CSSC[C@@H](C(=O)N[C@@H](CCSC)C(=O)N[C@@H](CCCCN)C(=O)N[C@@H](CCC(N)=O)C(=O)N[C@@H](CCCCN)C(=O)N[C@@H](CCCCN)C(=O)N[C@@H](CCCCN)C(=O)N[C@@H](CCC(=O)O)C(=O)N[C@@H](Cc2c[nH]c3ccccc23)C(=O)N[C@@H](CCCCN)C(=O)N[C@@H](C)C(=O)NCC(N)=O)NC(=O)[C@H](C)NC(=O)[C@H](CCCCN)NC(=O)[C@H](Cc2ccccc2)NC(=O)[C@H](C(C)C)NC(=O)[C@H](CO)NC(=O)[C@H](CO)NC(=O)[C@H](Cc2c[nH]cn2)NC(=O)[C@H](Cc2ccc(O)cc2)NC(=O)[C@H](C)NC(=O)[C@H](CCC(N)=O)NC(=O)[C@H](CCCNC(=N)N)NC(=O)[C@H](CC(=O)O)NC1=O [compound 21] (H-CDATCQFRKAIDDCDRQAYHSSVFKACMKQKKKEWKAG-NH2; disulfide 1-5, 14-27)
- IC50 (human PAC1 receptor): 0.01 to 1 nM
- IC50 (rat PAC1 receptor): 0.01 to 1 nM

Compound: CC[C@H](C)[C@H](NC(=O)[C@H](C)NC(=O)[C@H](CCCCN)NC(=O)[C@H](CCCNC(=N)N)NC(=O)[C@H](Cc1ccccc1)NC(=O)[C@H](CCC(N)=O)NC(=O)[C@@H]1CSSC[C@H](N)C(=O)N[C@@H](CC(=O)O)C(=O)N[C@@H](C)C(=O)N[C@@H]([C@@H](C)O)C(=O)N1)C(=O)N[C@@H](CC(=O)O)C(=O)N[C@@H](CC(=O)O)C(=O)N[C@H]1CSSC[C@@H](C(=O)N[C@@H](CCSC)C(=O)N[C@@H](CCCCN)C(=O)N[C@@H](CCC(N)=O)C(=O)N[C@@H](CCCCN)C(=O)N[C@@H](CCCCN)C(=O)N[C@@H](CCCCN)C(=O)N[C@@H](CCC(=O)O)C(=O)N[C@@H](Cc2c[nH]c3ccccc23)C(=O)N[C@@H](CCCCN)C(=O)N[C@@H](C)C(=O)NCC(=O)N[C@@H](Cc2c[nH]cn2)C(=O)O)NC(=O)[C@H](C)NC(=O)[C@H](CCCCN)NC(=O)[C@H](Cc2ccccc2)NC(=O)[C@H](C(C)C)NC(=O)[C@H](CO)NC(=O)[C@H](CO)NC(=O)[C@H](Cc2c[nH]cn2)NC(=O)[C@H](Cc2ccc(O)cc2)NC(=O)[C@H](C)NC(=O)[C@H](CCC(N)=O)NC(=O)[C@H](CCCNC(=N)N)NC(=O)[C@H](C)NC1=O [compound 27] (H-CDATCQFRKAIDDCARQAYHSSVFKACMKQKKKEWKAGH-OH; disulfide 1-5, 14-27)
- IC50 (human PAC1 receptor): 0.01 to 1 nM
- IC50 (rat PAC1 receptor): 0.01 to 1 nM
